The results in this text go back to patent publication US20120016119A1, “NOVEL PYRROLO(2,3-d)PYRIMIDINE COMPOUND” (priority 2009, published 2012).

pEC50: −log10 of the molar value.

This assay addresses T1, human GPR119 (Homo sapiens, UniProt Q8TDV5).
T1 construct: expressed in transfected cells; host or cells: CHO cells (LM-3 mock cells carrying luciferase reporter pLG3-CRE6-CRE-VIP); resulting line L8-18
T1 sequence (Q8TDV5 1-335): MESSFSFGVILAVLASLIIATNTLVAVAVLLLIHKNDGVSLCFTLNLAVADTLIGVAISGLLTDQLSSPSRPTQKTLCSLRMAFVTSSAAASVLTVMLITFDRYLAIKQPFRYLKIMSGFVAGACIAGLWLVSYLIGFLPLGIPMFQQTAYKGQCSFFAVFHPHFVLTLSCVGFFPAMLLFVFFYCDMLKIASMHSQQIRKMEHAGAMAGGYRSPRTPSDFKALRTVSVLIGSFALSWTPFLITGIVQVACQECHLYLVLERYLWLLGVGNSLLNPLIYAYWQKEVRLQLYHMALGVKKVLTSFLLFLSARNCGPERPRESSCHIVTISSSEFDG
In words: GPR119 agonistic activity: cAMP production in human GPR119-expressed CHO cells (HTRF cAMP kit). It counts as cell-based. As to conditions: human GPR119-expressed CHO cells (L8-18), 37° C. for 30 minutes, 500 μM IBMX. Here is the method:
The present experiment is directed to evaluate GPR119 agonistic activity (in vitro) of test compounds by adding the compounds to human GPR119-expressed CHO cells to determine cAMP production of the cells.
Human GPR119-expressed CHO cells (L8-18) were prepared by introducing an expression vector pMSF1-GPR119 (Geneticin-resistance) carrying human GPR119 genes into CHO cells (LM-3; Mock cells) wherein lusiferase expression vector pLG3-CRE6-CRE-VIP (Hygromycin B-resistance) were introduced according to the known method (The Journal of Biological Chemistry Vol. 274 (34), pp. 23940-23947).
Cryopreserved L8-18 cells were melted, and then suspended into 9-fold amounts of assay buffer and centrifuged (1000 rpm, 5 minutes) at room temperature. The supernatant was removed, and then the precipitated cells were resuspended into assay buffer (4 mL). Thereto was added assay buffer which contained IBMX (manufactured by Sigma, #17018-1G), and 7.5×10^4 cells/mL of cell suspension was prepared. The cell suspension was let stand at room temperature for 15 minutes, and then to each well of 96 half well white plate (manufactured by Corning Incorporated, #3693) were added the cell suspension (20 μL) and a solution of a test compound or AR231453 (5 μL; a total of 25 (final concentration: 1500 cells/well, 500 μM IBMX, 1% dimethylsulfoxide). The mixture was incubated at 37° C. for 30 minutes, and then to each well were added a 20-fold diluted solution (each 12.5 μL/well) of cAMP-d2 and Anti cAMP-Cryptate of HTRF cAMP kit (manufactured by Cisbio, #62AM4PEC). The mixture was stirred, and then was let stand for 1 hour under light shielding. A fluorescence intensity was measured by time-resolved fluorescence mode (Ex: 320 nm, Em: 665 nm, 620 nm) of Microplate Reader (ARVO or SpectraMax M5e). In ARVO, Ratios [Ratio=(665 nm/620 nm)×10^4)] of cAMP-d2 to Anti cAMP-Cryptate were calculated from the resulting fluorescence intensity, and cAMP concentrations of each well were calculated from cAMP standard curve prepared by the Ratios and GraphPad Prism. In SpectraMax M5e, cAMP concentrations of each well were calculated on the basis of a standard curve prepared by the resulting fluorescence intensity and Softmax Pro.
EC50 of test compounds were calculated by GraphPad Prism.
(Cyclic AMP is a second messenger, typically raised through Gs and lowered through Gi signalling.)
In the case of `CC(C)OC(=O)N1CCC(n2cc(Cl)c3c(Nc4ncc(C(=O)N(C)C)cc4Cl)ncnc32)CC1` [Example Compound 2, isopropyl 4-[5-chloro-4-(3-chloro-5-dimethylcarbamoylpyridin-2-ylamino)pyrrolo[2,3-d]pyrimidin-7-yl]piperidine-1-carboxylate], the negative logarithm of the EC50 (pEC50) (as a rule, the EC50 on a negative log10 scale, so that one unit is a factor of ten) is 5.52 to 6.00. Next, `CN(CCCO)C(=O)c1ccc(Nc2ncnc3c2c(F)cn3C2CCN(c3ncc(C4CC4)cn3)CC2)c(F)c1` [Example Compound 138]: over 6.00; `CC(C)(C)OC(=O)N1CCC(n2cc(F)c3c(Oc4ccc(S(C)(=O)=O)cc4F)ncnc32)CC1` [Example Compound 3, tert-butyl 4-[5-fluoro-4-(2-fluoro-4-mesylphenoxy)pyrrolo[2,3-d]pyrimidin-7-yl]piperidine-1-carboxylate]: over 6.00.

For `CN(CCCO)C(=O)c1ccc(Nc2ncnc3c2c(F)cn3C2CCN(c3noc(C(F)(F)F)n3)CC2)c(F)c1` [Example Compound 184], the pEC50 was over 6.00.

In turn, `CN(C)C(=O)c1ccc(Nc2ncnc3c2c(F)cn3C2CCN(C(=O)OC(C)(C)C)CC2)c(F)c1` [Example Compound 1, tert-butyl 4-[4-(4-dimethylcarbamoyl-2-fluorophenylamino)-5-fluoropyrrolo[2,3-d]pyrimidin-7-yl]piperidine-1-carboxylate] showed a negative-log EC50 (pEC50) of over 6.00. `CN(C)C(=O)c1ccc(Nc2ncnc3c2c(F)cn3C2CCN(c3ncc(C(F)(F)F)cn3)CC2)c(F)c1` [Example Compound 54]: the pEC50 is over 6.00. Molecule `CCc1cnc(N2CCC(n3cc(F)c4c(Nc5ccc(S(C)(=O)=O)cc5F)ncnc43)CC2)nc1` [Example Compound 77] had a pEC50 of over 6.00. For `CN(C)C(=O)c1ccc(Nc2ncnc3c2c(F)cn3C2CCN(C(=O)OC(C)(C)C)CC2)c(Cl)c1` [Example Compound 17], the pEC50 was over 6.00.

For the molecule `CC(C)c1noc(N2CCC(n3cc(F)c4c(Nc5ccc(C(=O)N(C)C)cc5Cl)ncnc43)CC2)n1` [Example Compound 21], the pEC50 was over 6.00. As for `CC(C)(C)OC(=O)N1CCC(n2cc(F)c3c(Nc4ccc(S(C)(=O)=O)cc4Cl)ncnc32)CC1` [Example Compound 13], the pEC50 is over 6.00. Consider `CCc1cnc(N2CCC(n3cc(F)c4c(Nc5cc(F)c(C(=O)N(C)CCO)cc5F)ncnc43)CC2)nc1` [Example Compound 164], for which the pEC50 was over 6.00. `CN(CCO)C(=O)c1ccc(Nc2ncnc3c2c(F)cn3C2CCN(c3ncc(OC(F)F)cn3)CC2)c(F)c1` [Example Compound 193] had a negative logarithm of the EC50 (pEC50) of over 6.00.

Consider `CC(C)Oc1cnc(N2CCC(n3cc(F)c4c(Nc5ccc(C(=O)N(C)C)cc5F)ncnc43)CC2)nc1` [Example Compound 56], for which the pEC50 is over 6.00. Next, `CC(C)(C)OC(=O)N1CCC(n2cc(F)c3c(Nc4ccc(-n5cncn5)cc4F)ncnc32)CC1` [Example Compound 15]: over 6.00.
